Numbers after ± are expanded uncertainties.
Conditions: Crystal; DTA

Normal melting temperature: 315.30 ± 0.5 °C
SMILES: C=C(C)[C@@H]1CC[C@]2(C(=O)O)CC[C@]3(C)[C@H](CC[C@@H]4[C@@]5(C)CC[C@H](O)C(C)(C)[C@@H]5CC[C@]43C)[C@@H]12 [betulinic acid]

— the NIST ThermoML archive (doi:10.1021/je200531k)
